Data from PubChem BioAssay AID1963847 (Molecular Pharmacology Branch, DTP, NCI, 2024).

Test system: 415267-285-R-J2-PDC complex spheroid viability
Test: Anticancer human tumor 415267-285-R-J2-PDC patient-derived breast carcinoma cell line growth inhibition [POLQ]
Details: for IC50: curve of first compound; for viability, T/C: stronger effect = lower value
Procedure: Multicellular complex tumor spheroid response to Polymerase (POL) inhibitors (novobiocin, ART-558, RP6685) in combination with a variety of drugs and investigational agents in selected tumor cell lines
The POL inhibitors (novobiocin, ART-558, and RP6685) were evaluated both individually and in combination with standard of care and investigational anticancer small molecules within a complex spheroid model of solid tumors. . Complex spheroids include a stromal component modeled by human endothelial cells (HUVEC) and fibroblasts modeled by human mesenchymal stem cells (MSCs). The concentration ranges selected for each drug and investigational agent were based upon clinically achievable concentrations if the clinical Cmax of the agent was known.
Compounds. The drugs and investigational agents: novobiocin (NSC847541), ART-558 (NSC835418), RP-6685 (NSC848927), peposertib (NSC802822), ceralasertib (NSC780249), elimusertib (NSC800525), camonsertib (NSC841442), AZD-1390 (NSC803789), olaparib (NSC753686), talazoparib (NSC767125), rucaparib (NSC756644), sotorasib (NSC818433), MRTX-1133 (NSC836407), SN-38 (NSC673596), topotecan (NSC609699), epotoside (NSC141540), doxorubicin (NSC123127), gemcitabine (NSC613327), 5-fluorouracil (NSC19893), paclitaxel (NSC125973), vemurafenib (NSC761431), MSA-2 (NSC828583), SN-011 (NSC837082), adavosertib (NSC754352), prexasertib (NSC758257), carboplatin (NSC241240) and oxaliplatin (NSC266046), were obtained from the National Cancer Institute (NCI) Developmental Therapeutics Program Chemical Repository (21). The FDA-approved anticancer drug set is available from the Developmental Therapeutics Program at https://dtp.cancer.gov/organization/dscb/obtaining/. […] The stock solutions were prepared in dimethyl sulfoxide (DMSO, Sigma-Aldrich, St. Louis, MO, cat. D2650), except for the platinum compounds which were prepared in saline (Quality Biological, Gaithersburg, MD, cat. 114-055-101), at 800-fold the tested concentration and stored at -70 degrees C prior to their use. All drugs and investigational agents were tested over a range starting from a high concentration at or near the clinical Cmax and decreasing in half-log increments. If the clinical Cmax for an agent had not been determined, the highest concentration tested was 10 microM, except for SN-38, which was tested at a high concentration of 1 microM.
Cell Culture. All cells were maintained in an incubator at 37 degrees C and 5% CO2 with 95% humidity. The PDC lines were cultured according to standard operating procedures established by the NCI PDMR (https://pdmr.cancer.gov). Table 3 of the manuscript, lists the cell lines along with the number of the three cell types plated to form the mct-spheroids and media for tumor cell growth. After thawing, all PDC lines, except 997537-175-T-J1-PDC and 415267-285-R-J2-PDC, were cultured in Matrigel-coated flasks prepared with a working solution of 1X Ham's F-12 nutrient mix, without supplementation (Thermo Fisher Scientific, cat. 11765054), 100 U/mL penicillin-streptomycin (Thermo Fisher Scientific, cat. 15140122), and 2.5% Matrigel (Corning Inc., Corning, NY, cat. 354248) for the first three passages. The two PDC lines 997537-175-T-J1-PDC and 415267-285-R-J2-PDC were cultured on uncoated flasks. The 857933-349-R-J2-PDC line was cultured in 6C/Colon 1B media containing advanced DMEM/F-12 (Thermo Fisher Scientific, cat. 12634028), 10 mM HEPES (Thermo Fisher Scientific, cat. 15630080), 1X GlutaMAX supplement (Thermo Fisher Scientific, cat. 35050061), 0.1 mg/mL primocin (InvivoGen, San Diego, CA, cat. ant-pm-2), 10% defined fetal bovine serum, heat inactivated (HyClone Laboratories Inc., Logan, UT, cat. SH30070.03HI), 50% L-WRN conditioned media (ATCC, cat. CRL-3276), 1.25 mM N-Acetyl-L-cysteine (Sigma-Aldrich, cat. A9165), 10 mM nicotinamide (Sigma-Aldrich, cat. N0636), 1X B-27 supplement (Thermo Fisher Scientific, cat. 17504044), 1X N-2 supplement (Thermo Fisher Scientific, cat. […]

[1] = second compound 0.0316 µM, first compound 0.0316 µM
[2] = second compound 0.0316 µM, first compound 0.1 µM
[3] = second compound 0.0316 µM, first compound 0.316 µM
[4] = second compound 0.0316 µM, first compound 1 µM
[5] = second compound 0.0316 µM, first compound 3.16 µM
[6] = second compound 0.0316 µM, first compound 10 µM
[7] = second compound 0.1 µM, first compound 0.0316 µM
[8] = second compound 0.1 µM, first compound 0.1 µM
[9] = second compound 0.1 µM, first compound 0.316 µM
[10] = second compound 0.1 µM, first compound 1 µM
[11] = second compound 0.1 µM, first compound 3.16 µM
[12] = second compound 0.1 µM, first compound 10 µM
[13] = second compound 0.316 µM, first compound 0.0316 µM
[14] = second compound 0.316 µM, first compound 0.1 µM
[15] = second compound 0.316 µM, first compound 0.316 µM
[16] = second compound 0.316 µM, first compound 1 µM
[17] = second compound 0.316 µM, first compound 3.16 µM
[18] = second compound 0.316 µM, first compound 10 µM
[19] = second compound 1 µM, first compound 0.0316 µM
[20] = second compound 1 µM, first compound 0.1 µM
[21] = second compound 1 µM, first compound 0.316 µM
[22] = second compound 1 µM, first compound 1 µM
[23] = second compound 1 µM, first compound 3.16 µM
[24] = second compound 1 µM, first compound 10 µM
[25] = second compound 3.16 µM, first compound 0.0316 µM
[26] = second compound 3.16 µM, first compound 0.1 µM
[27] = second compound 3.16 µM, first compound 0.316 µM
[28] = second compound 3.16 µM, first compound 1 µM
[29] = second compound 3.16 µM, first compound 3.16 µM
[30] = second compound 3.16 µM, first compound 10 µM
[31] = second compound 10 µM, first compound 0.0316 µM
[32] = second compound 10 µM, first compound 0.1 µM
[33] = second compound 10 µM, first compound 0.316 µM
[34] = second compound 10 µM, first compound 1 µM
[35] = second compound 10 µM, first compound 3.16 µM
[36] = second compound 10 µM, first compound 10 µM
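Note: spheroids exposed to compounds for one week before readout.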
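Throughout, for viability, T/C: luminescence used as stand-in measure of viable cells; 100% = DMSO vehicle control viability.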

Work on `Nc1ccn(C2OC(CO)C(O)C2(F)F)c(=O)n1` (centres undefined) + COC1C(OC(N)=O)C(O)C(Oc2ccc3c(O)c(NC(=O)c4ccc(O)c(CC=C(C)C)c4)c(=O)oc3c2C)OC1(C)C yielded an IC50 (second compound 0.0316 µM) of under 31.6 nM, an IC50 (second compound 0.1 µM) of under 31.6 nM and an IC50 (second compound 0.316 µM) of under 31.6 nM. It also gave an IC50 (second compound 1 µM) of under 31.6 nM, an IC50 (second compound 3.16 µM) of under 31.6 nM and an IC50 (second compound 10 µM) of under 31.6 nM. For the same compound, the viability, T/C [1] was 6.95%, the viability, T/C [2] was 7.41% and the viability, T/C [3] was 5.11%. It also gave a viability, T/C [4] of 5.97%, a viability, T/C [5] of 5.96% and a viability, T/C [6] of 7.99%. It also gave a viability, T/C [7] of 7.63%, a viability, T/C [8] of 6.2% and a viability, T/C [9] of 4.86%. The viability, T/C [10] was 5.57%, the viability, T/C [11] was 5.43% and the viability, T/C [12] was 5.04%. The viability, T/C [13] was 6.64%, the viability, T/C [14] was 8.84% and the viability, T/C [15] was 5.17%. The viability, T/C [16] was 4.85%, the viability, T/C [17] was 6.19% and the viability, T/C [18] was 4.45%. The viability, T/C [19] was 31.1%, the viability, T/C [20] was 5.76% and the viability, T/C [21] was 5.6%. It also gave a viability, T/C [22] of 5.77%, a viability, T/C [23] of 5.83% and a viability, T/C [24] of 5.65%. The viability, T/C [25] was 7.56%, the viability, T/C [26] was 6.05% and the viability, T/C [27] was 5.39%. It also gave a viability, T/C [28] of 6.49%, a viability, T/C [29] of 5.4% and a viability, T/C [30] of 5.83%. It also gave a viability, T/C [31] of 24.7%, a viability, T/C [32] of 5.53% and a viability, T/C [33] of 6.82%. The viability, T/C [34] was 6.71%, the viability, T/C [35] was 7.68% and the viability, T/C [36] was 5.33%.
In the case of `O=c1[nH]cc(F)c(=O)[nH]1` + COC1C(OC(N)=O)C(O)C(Oc2ccc3c(O)c(NC(=O)c4ccc(O)c(CC=C(C)C)c4)c(=O)oc3c2C)OC1(C)C, the IC50 (second compound 0.0316 µM) is reported as 194 nM, the IC50 (second compound 0.1 µM) is reported as 197 nM and the IC50 (second compound 0.316 µM) is reported as 162 nM. It also gave an IC50 (second compound 1 µM) of 176 nM, an IC50 (second compound 3.16 µM) of 205 nM and an IC50 (second compound 10 µM) of 203 nM. It also gave a viability, T/C [1] of 94.1%, a viability, T/C [2] of 72.7% and a viability, T/C [3] of 33.1%. For the same compound, the viability, T/C [4] was 31.1%, the viability, T/C [5] was 27.2% and the viability, T/C [6] was 37.1%. The viability, T/C [7] was 86.9%, the viability, T/C [8] was 73.1% and the viability, T/C [9] was 34.2%. The viability, T/C [10] was 23.7%, the viability, T/C [11] was 26.5% and the viability, T/C [12] was 39.3%. The viability, T/C [13] was 97.7%, the viability, T/C [14] was 63.8% and the viability, T/C [15] was 31%. For the same compound, the viability, T/C [16] was 27.2%, the viability, T/C [17] was 26.7% and the viability, T/C [18] was 34.5%. The viability, T/C [19] was 85.8%, the viability, T/C [20] was 63.5% and the viability, T/C [21] was 36.8%. It also gave a viability, T/C [22] of 25.3%, a viability, T/C [23] of 26.4% and a viability, T/C [24] of 29.9%. For the same compound, the viability, T/C [25] was 94.6%, the viability, T/C [26] was 76.3% and the viability, T/C [27] was 34.2%. For the same compound, the viability, T/C [28] was 27.1%, the viability, T/C [29] was 25.4% and the viability, T/C [30] was 37.2%. The viability, T/C [31] was 92%, the viability, T/C [32] was 70% and the viability, T/C [33] was 37.8%. It also gave a viability, T/C [34] of 29.9%, a viability, T/C [35] of 25.3% and a viability, T/C [36] of 35.7%.
